{"source": "patent US7105669B1", "about": "“Quinazoline derivatives” (AstraZeneca AB, priority 1999, dated 2006)", "key": {"MCF-7 cells [1]": {"test_system": "MCF-7 cells", "assay": "In vitro cell proliferation assay, Assay 1 (CyQUANT cell density)", "type": "cell-based", "settings": "Homo sapiens, MCF7, 72 h, MCF-7, 3 days with compound, read-out: concentration giving 50% inhibition of cell proliferation", "source_text": "(§1) These and other assays can be used to determine the ability of a test compound to inhibit the growth of adherent mammalian cell lines, for example the human tumour cell line MCF7.\nMCF-7 (ATCC HTB-22) or other adherent cells were typically seeded at 1×10^3 cells per well (excluding the peripheral wells) in DMEM (Sigma Aldrich) without phenol red, plus 10% foetal calf serum, 1% L-glutamine and 1% penicillin/streptomycin in 96 well tissue culture treated clear plates (Costar). The following day (day 1), the media was removed from a no treatment control plate and the plate stored at −80° C. The remaining plates were dosed with compound (diluted from 10 mM stock in DMSO using DMEM (without phenol red, 10% FCS, 1% L-glutamine, 1% penicillin/streptomycin). Untreated control wells were included on each plate. After 3 days in the presence/absence of compound (day 4) the media was removed and the plates stored at −80° C. Twenty four hours later the plates were thawed at room temperature and cell density determined using the CyQUANT cell proliferation assay kit (c-7026/c-7027 Molecular Probes Inc.) according to manufacturers directions. Briefly, 200 μl of a cell lysis/dye mixture (10 μl of 20× cell lysis buffer B, 190 μl of sterile water, 0.25 μl of CYQUANT GR dye) was added to each well and the plates incubated at room temperature for 5 minutes in the dark. […]"}, "aurora2 kinase": {"molecular_target": "T1, aurora2 kinase (Homo sapiens, UniProt O14965)", "T1 construct": "made in house; host or cells: Spodoptera frugiperda Sf21 insect cells (baculovirus, pFastBac HTc)", "T1 sequence (O14965 1-403)": "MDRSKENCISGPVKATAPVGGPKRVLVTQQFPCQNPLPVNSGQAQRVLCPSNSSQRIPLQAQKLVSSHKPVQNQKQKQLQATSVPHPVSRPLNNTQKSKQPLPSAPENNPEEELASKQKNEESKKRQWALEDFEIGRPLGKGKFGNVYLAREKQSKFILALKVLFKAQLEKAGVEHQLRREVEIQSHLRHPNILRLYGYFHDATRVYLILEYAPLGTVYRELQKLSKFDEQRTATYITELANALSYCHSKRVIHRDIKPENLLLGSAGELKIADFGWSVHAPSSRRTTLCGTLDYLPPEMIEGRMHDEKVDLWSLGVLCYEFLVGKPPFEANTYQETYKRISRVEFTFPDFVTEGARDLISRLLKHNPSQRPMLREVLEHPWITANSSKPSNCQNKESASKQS", "assay": "In vitro aurora2 kinase inhibition test", "type": "biochemical"}, "MCF7 cells": {"test_system": "MCF7 cells", "assay": "In vitro cell cycle analysis assay (FACS, propidium iodide)", "type": "cell-based, human", "settings": "12.76 μM, 24 hours", "protocol": "This assay determines the ability of a test compound to arrest cells in specific phases of the cell cycle. Many different mammalian cell lines could be used in this assay and MCF7 cells are included here as an example. MCF-7 cells were seeded at 3×10^5 cells per T25 flask (Costar) in 5 ml DMEM (no phenol red 10% FCS, 1% L-glutamine 1% penicillin/streptomycin). Flasks were then incubated overnight in a humidified 37° C. incubator with 5% CO2. The following day 1 ml of DMEM (no phenol red 10% FCS, 1% L-glutamine 1% penicillin/streptomycin) carrying the appropriate concentration of test compound solubilised in DMSO was added to the flask. A no compound control treatments was also included (0.5% DMSO). The cells were then incubated for a defined time (usually 24 hours) with compound. After this time the media was aspirated from the cells and they were washed with 5 ml of prewarmed (37° C.) sterile PBSA, then detached from the flask by brief incubation with trypsin and followed by resuspension in 10 ml of 1% Bovine Serum Albumin (BSA, Sigma-Aldrich Co.) in sterile PBSA. The samples were then centrifuged at 2200 rpm for 10 min. The supernatant was aspirated and the cell pellet was resuspended in 200 μl of 0.1% (w/v) Tris sodium citrate, 0.0564% (w/v) NaCl, 0.03% (v/v) Nonidet NP40, [pH 7.6]. Propridium Iodide (Sigma Aldrich Co.) was added to 40 μg/ml and RNAase A (Sigma Alrich Co.) to 100 μg/ml. The cells were then incubated at 37° C. for 30 minutes. The samples were centrifuged at 2200 rpm for 10 min, the supernatant removed and the remaining pellet (nuclei) resuspended in 200 μl of sterile PBSA. […] The samples were then transferred to LPS tubes and DNA content per cell analysed by Fluorescence activated cell sorting (FACS) using a FACScan flow cytometer (Becton Dickinson). Typically 25000 events were counted and recorded using CellQuest v1.1 software (Verity Software). Cell cycle distribution of the population was calculated using Modfit software (Verity Software) and expressed as percentage of cells in G0/G1, S and G2/M phases of the cell cycle. […]"}, "MCF-7 cells [2]": {"test_system": "MCF-7 cells", "assay": "In vitro cell proliferation assay, Assay 2 (BrdU incorporation)", "type": "cell-based", "settings": "Homo sapiens, MCF7; MCF-7, 48 hours with compound, 2 hour BrdU labelling; read-out: concentration giving 50% inhibition of BrdU incorporation", "source_text": "as §1\nThis assay determines the ability of a test compound to inhibit the incorporation of the thymidine analogue, 5′-bromo-2′-deoxy-uridine (BrdU) into cellular DNA. MCF-7 or other adherent cells were typically seeded at 0.8×10^4 cells per well in DMEM (Sigma Aldrich) without phenol red, plus 10% foetal calf serum, 1% L-glutamine and 1% penicillin/streptomycin (50 μl/well) in 96 well tissue culture treated 96 well plates (Costar) and allowed to adhere overnight. […] The optical density of the wells was then determined at 690 nm wavelength using a Titertek Multiscan plate reader. […]"}}}
{"molecule": "COc1cc2ncnc(Nc3ccc(/C=C/C(=O)NC4CCCC(C)C4)cc3)c2cc1OC", "note": "(stereo not drawn) [Compound 18]", "values": [{"measurement": "IC50", "setting": "MCF-7 cells [1]", "value": 6.38, "unit": "µM"}, {"measurement": "IC50", "setting": "aurora2 kinase", "value": 0.117, "unit": "µM"}, {"measurement": "% Cells in G1", "setting": "MCF7 cells", "value": 30.96, "unit": "%"}, {"measurement": "% Cells in G2/M", "setting": "MCF7 cells", "value": 49.62, "unit": "%"}, {"measurement": "% Cells in S", "setting": "MCF7 cells", "value": 19.42, "unit": "%"}, {"measurement": "IC50", "setting": "MCF-7 cells [2]", "value": 2.47, "unit": "µM"}]}
